Data set [1] concerns MDA-MB-435S melanoma cells or RERF-LC-AI lung tumor cells. Briefly: Anti-tumor activity in nude mouse xenograft models. Format: in vivo. The settings on record: i.v. The method, then: The human tumor cell line, MDA-MB-435S (ATCC #HTB-129; G. Ellison, et al., Mol. Pathol. 55:294-299, 2002), is obtained from the American Type Culture Collection (ATCC; Manassas, Va., USA). The human tumor cell line, RERF-LC-AI (RCB0444; S. Kyoizumi, et al., Cancer. Res. 45:3274-3281, 1985), is obtained from the Riken Cell Bank (RCB; Tsukuba, Ibaraki, Japan). The cell lines are cultured in growth media prepared from 50% Dulbecco's Modified Eagle Medium (high glucose), 50% RPMI Media 1640, 10% fetal bovine serum (FBS), 1% 100×L-glutamine, 1% 100× Penicillin-Streptomycin, 1% 100× sodium pyruvate and 1% 100×MEM non-essential amino acids. FBS is obtained from ATCC and all other reagents are obtained from Invitrogen Corp. (Carlsbad, Calif., USA). […] The supernatant is aspirated and the cell pellet is resuspended in 10 mL of growth media and the cell number is determined using a hemocytometer. […]
Tumors are then permitted to develop in vivo until they reached approximately 100-200 mm^3 in volume, which typically required 2-3 weeks following implantation. Tumor volumes (V) are calculated by caliper measurement of the width (W), length (L) and thickness (T) of tumors using the following formula: V=0.5326×(L×W×T). […]

In data set [2] the test system is HL-60. Briefly: In vitro cytotoxicity, MTS assay, 72 hours. The settings on record: Homo sapiens, HL-60, 72 hours, read-out: IC50 (concentration required to inhibit 50% tumor cell growth). It is filed as cell-based. On the procedure: (§1) The in vitro cytotoxicity of the compounds of the invention was determined in the following human cell lines: HL-60, HL-60-TX1000 (MDR), MES-SA and MES-SA/DX5 (uterine sarcoma). MES-SA is a model of uterine sarcoma, and the cells are sensitive to a number of chemotherapeutic agents including doxorubicin, dactinomycin, mitomycin C, taxol and bleomycin. The MES-SA/Dx5 cell line was established in the presence of increasing concentrations of doxorubicin. […] All cells except HL-60-TX1000 were purchased from ATCC. HL-60, a model of myeloid leukemia, was from ATCC and HL60/TX1000 was a gift from Dr. Bhalla of Emory University School of Medicine. HL-60/TX1000 was isolated in vitro by subculturing HL-60 in progressively higher concentration of Taxol. HL-60/TX1000 cells over-express mdr-1 mRNA and p-glycoprotein, as determined by western blot and immunofluorescence labeling with antiPGP antibodies
(§2) The cell lines were maintained in RPMI1640 (GIBCO) supplemented with 10% FCS, 100 units/mL penicillin, 100 ug/ml streptomycin, and 2 mM L-glutamine. Cells were split every third day and diluted to a concentration of 2×10^5 cells/mL one day before the experiment was performed. All experiments were performed on exponentially growing cell cultures. Cell densities were 2.5×10^4 cells/mL in all experiments.
(§3) Test compounds were prepared by dissolving the compounds at a concentration of 10 mM in 100% DMSO. Final concentrations 10, 1, 0.1, 0.01 and 0.001 μM were obtained by diluting the stock solution directly into the tissue culture medium. Cells were incubated with varying concentrations of test compounds for 72 hours and the IC50 was determined by MTS (i.e. […]) assay. IC50 in this context stands for the concentration of a compound required to inhibit 50% tumor cell growth.

The subject of data set [3] is HL-60-TX1000 (MDR). Briefly: In vitro cytotoxicity, MTS assay, 72 hours. Format: cell-based. The settings on record: Homo sapiens, HL60/TX1000, HL-60-TX1000 multi-drug resistant, read-out: IC50 (concentration required to inhibit 50% tumor cell growth). The method, then: as §1, §2, §3
The subject of data set [4] is MES-SA. Briefly: In vitro cytotoxicity, MTS assay, 72 hours. Format: cell-based. Particulars: Homo sapiens, read-out: IC50 (concentration required to inhibit 50% tumor cell growth). The method, then:
as §1, §2, §3

Data set [5] deals with MES-SA/DX5 (uterine sarcoma). Briefly: In vitro cytotoxicity, MTS assay, 72 hours. It is filed as cell-based. Particulars: Homo sapiens, MES-SA/DX5 multi-drug resistant, read-out: IC50 (concentration required to inhibit 50% tumor cell growth). The method, then:
as §1, §2, §3

Data set [6] has as its system CHO-α-tubulin-YFP or MCF7-α-tubulin-YFP cells. The experiment in a line: Inhibition of tubulin polymerization, tubulin-YFP fluorescence imaging. It is filed as cell-based. Particulars: living or fixed cells, fluorescence microscopy. The source says:
Wild-type Chinese Hamster Ovary cells (WT CHO) cells are maintained in Ham's F-12 medium supplemented with 10% fetal bovine serum (FBS; HyClone, Logan, Utah). Cells of low density (−20%) growing on 2-well chambered cover-slips (Labtek (Campbell, Calif.) or Fisher Scientific) are transfected with a mammalian expression vector encoding α-tubulin-YFP (Clontech, Palo Alto, Calif.) with the use of FuGENE 6 (Roche Molecular Biochemicals, Indianapolis, Ind.), according to the manufacturer's instructions. Twenty-four hours after transfection, the cells are cultured in 400 μg/ml G418 (Invitrogen, Carlsbad, Calif.)-containing selection medium for 2 weeks. Living cells are examined using a fluorescent microscope for α-tubulin-YFP expression. […] Expressed tubulin-YFP is detected as a single band in Western blots. […]
CHO-α-tubulin-YFP or MCF7-α-tubulin-YFP cells are cultured in 2-well chambered cover-slips (Labtek (Campbell, Calif.) or Fisher Scientific) for 24 hours before treatment with a compound of the invention. […] Tubulin-YFP fluorescence in living cells or fixed cells is captured using a standard filter for FITC and objectives of 20× or 60× magnification on a Nikon TE300 microscope with a Leica DC50 color digital camera (Leica, Bannockburn, Ill.) or a CoolSnap HQ monochrome CCD camera (Photonetrics, Tucson, Ariz.). […]

Data set [7] deals with CV-1 cells. Briefly: Microtubule disruption in cells resistant to colchicine and vincristine. Format: cell-based. Particulars: 500 nM; 24, 48 and 72 hr. On the procedure: The effects of compounds of the invention on microtubules can be studied in CV-1 cells. The microtubules of CV-1 cells are known to be resistant to the depolymerizing effects of colchicine and vincristine. CV-1 cells are treated with 500 nM of a compound of the invention, or vincristine or colchicines. At 24, 48 and 72 hr the cells are fixed and stained to examine microtubule structure. In cells treated with compounds of the invention, microtubule structures are expected to be diminished compared to untreated cells.

Each structure is given as a SMILES string.

Take `CC(=O)O[C@H]1C(=O)[C@@]2(C)[C@H]([C@H](OC(=O)c3ccccc3)[C@]3(O)C[C@H](OC(=O)[C@H](O)[C@@H](NC(=O)c4ccccc4)c4ccccc4)C(C)=C1C3(C)C)[C@]1(OC(C)=O)CO[C@@H]1C[C@@H]2O` [paclitaxel, reference compound]: the tumor growth entry in data set [1] (3 days per week, 9-10 doses, compounds 6.25, 12.5 and 25 mg/kg, paclitaxel 7.5 mg/kg) was “decreased tumor growth”.

For the compound `COc1cc(-n2nncc2-c2ccc(N(C)C)cc2)cc(OC)c1OC` [Compound 5, 1-(3,4,5-trimethoxy-phenyl)-5-[4-(N,N-dimethylamino)-phenyl]-1H-[1,2,3]triazole], the IC50 came to 0.0415 µM in data set [2], 0.0075 µM in data set [3], 0.0685 µM in data set [4] and 0.029 µM in data set [5].

Take `COc1ccc(-c2cnnn2-c2cc(OC)c(OC)c(OC)c2)cc1` [Compound 3, 1-(3,4,5-trimethoxy-phenyl)-5-(4-methoxy-phenyl)-1H-[1,2,3]triazole]: the IC50 in data set [2] was 0.053 µM; in data set [3] it was 0.02 µM; in data set [4], 0.052 µM; in data set [5], 0.037 µM. The “overt toxicity (effect on body weights)” value in data set [1] (nude mice) was “minimal”.

Consider `CC(=O)O[C@H]1C(=O)[C@@]2(C)[C@H]([C@H](OC(=O)c3ccccc3)[C@]3(O)C[C@H](OC(=O)[C@H](O)[C@@H](NC(=O)c4ccccc4)c4ccccc4)C(C)=C1C3(C)C)[C@]1(OC(C)=O)CO[C@@H]1C[C@@H]2O` [Taxol, paclitaxel, reference compound], for which, in data set [6], the “tubulin-YFP labeled microtubule pattern” value was “microtubule bundle formation”. Moreover, the IC50 in data set [2] came out at 0.002 µM; in data set [3], 1 µM; in data set [4], 0.005 µM; in data set [5], 5 µM.

Turning to `COc1cc2c(c(OC)c1OC)-c1ccc(OC)c(=O)cc1[C@@H](NC(C)=O)CC2` [colchicines, colchicine], the microtubule structure entry in data set [7] was “Disorganized but clear microtubule structures”.

On to `CC[C@]1(O)C[C@H]2CN(CCc3c([nH]c4ccccc34)[C@@](C(=O)OC)(c3cc4c(cc3OC)N(C=O)[C@H]3[C@@](O)(C(=O)OC)[C@H](OC(C)=O)[C@]5(CC)C=CCN6CC[C@]43[C@@H]65)C2)C1` [vincristine, Vincristine], for which, in data set [7], the microtubule structure entry was “Disorganized but clear microtubule structures”.

These data come from US9175022B2, “Compounds for the treatment of proliferative disorders” (Synta Pharmaceuticals Corp., priority 2005, dated 2015).
